# Target: Calcium/calmodulin-dependent protein kinase type II subunit beta (Homo sapiens) (UniProt Q13554)
# Sequence (Q13554 whole entry): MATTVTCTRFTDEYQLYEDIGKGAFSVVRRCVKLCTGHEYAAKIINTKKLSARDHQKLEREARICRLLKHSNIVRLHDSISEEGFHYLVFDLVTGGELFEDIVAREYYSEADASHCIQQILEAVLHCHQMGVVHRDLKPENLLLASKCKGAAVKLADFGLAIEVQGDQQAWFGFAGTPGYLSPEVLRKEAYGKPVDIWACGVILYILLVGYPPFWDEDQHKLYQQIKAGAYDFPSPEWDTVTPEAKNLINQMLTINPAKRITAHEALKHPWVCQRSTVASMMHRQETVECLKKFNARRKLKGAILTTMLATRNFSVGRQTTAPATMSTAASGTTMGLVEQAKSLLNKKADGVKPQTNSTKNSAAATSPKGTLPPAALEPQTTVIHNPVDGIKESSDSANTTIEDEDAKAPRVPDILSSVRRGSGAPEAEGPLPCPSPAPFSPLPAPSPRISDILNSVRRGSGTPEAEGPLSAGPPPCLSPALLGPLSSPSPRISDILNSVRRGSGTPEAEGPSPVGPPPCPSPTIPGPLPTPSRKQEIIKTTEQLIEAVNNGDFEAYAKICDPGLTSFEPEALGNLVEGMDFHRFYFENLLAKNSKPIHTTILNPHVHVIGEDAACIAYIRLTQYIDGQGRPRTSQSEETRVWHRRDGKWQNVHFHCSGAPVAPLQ
row,ΔTm,SMILES
1,0.4 °C,Nc1ncnc2c1c(I)cn2[C@@H]1O[C@H](CO)[C@@H](O)[C@H]1O
2,-0.6 °C,Nc1n[nH]c2nnc(-c3c(-c4ccccc4)nn4ccccc34)cc12
3,0.6 °C,O=C(O)Cc1ccc(O)c([N+](=O)[O-])c1
4,1 °C,O=c1sn(Cc2ccccc2)c(=S)n1Cc1ccccc1
5,1.6 °C,O=Nc1c(-c2c(O)[nH]c3ccccc23)[nH]c2ccccc12
6,1.3 °C,CC(C)(C)c1nc2c3ccc(F)cc3c3c(=O)[nH]ccc3c2[nH]1
7,0.1 °C,O=C1C=C2C(=Nc3c2c2c(c4c3=NC3=C4CCC=C3)C=NC=2)CC1

# Target: Cyclin-dependent kinase-like 1 (Homo sapiens) (UniProt Q00532)
# Sequence (Q00532 whole entry): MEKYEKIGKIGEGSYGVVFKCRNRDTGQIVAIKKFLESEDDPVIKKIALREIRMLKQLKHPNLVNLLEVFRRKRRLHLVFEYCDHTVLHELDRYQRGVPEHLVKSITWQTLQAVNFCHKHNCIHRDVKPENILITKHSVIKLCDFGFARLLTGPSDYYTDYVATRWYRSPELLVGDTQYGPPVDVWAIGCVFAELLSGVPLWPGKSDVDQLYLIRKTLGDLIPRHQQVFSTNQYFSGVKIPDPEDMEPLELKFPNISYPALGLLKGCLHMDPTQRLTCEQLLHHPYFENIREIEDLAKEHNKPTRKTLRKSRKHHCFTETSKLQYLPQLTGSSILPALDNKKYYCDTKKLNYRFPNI
row,ΔTm,SMILES
1,0.2 °C,Nc1ncnc2c1c(I)cn2[C@@H]1O[C@H](CO)[C@@H](O)[C@H]1O
2,0.2 °C,Nc1n[nH]c2nnc(-c3c(-c4ccccc4)nn4ccccc34)cc12
3,1.2 °C,O=C(O)Cc1ccc(O)c([N+](=O)[O-])c1
4,-0.3 °C,O=c1sn(Cc2ccccc2)c(=S)n1Cc1ccccc1
5,3.8 °C,O=Nc1c(-c2c(O)[nH]c3ccccc23)[nH]c2ccccc12
6,0.3 °C,CC(C)(C)c1nc2c3ccc(F)cc3c3c(=O)[nH]ccc3c2[nH]1
7,6.6 °C,O=C1C=C2C(=Nc3c2c2c(c4c3=NC3=C4CCC=C3)C=NC=2)CC1

# Target: Casein kinase I isoform gamma-1 (Homo sapiens) (UniProt Q9HCP0)
# Sequence (Q9HCP0 whole entry, looked up, canonical isoform): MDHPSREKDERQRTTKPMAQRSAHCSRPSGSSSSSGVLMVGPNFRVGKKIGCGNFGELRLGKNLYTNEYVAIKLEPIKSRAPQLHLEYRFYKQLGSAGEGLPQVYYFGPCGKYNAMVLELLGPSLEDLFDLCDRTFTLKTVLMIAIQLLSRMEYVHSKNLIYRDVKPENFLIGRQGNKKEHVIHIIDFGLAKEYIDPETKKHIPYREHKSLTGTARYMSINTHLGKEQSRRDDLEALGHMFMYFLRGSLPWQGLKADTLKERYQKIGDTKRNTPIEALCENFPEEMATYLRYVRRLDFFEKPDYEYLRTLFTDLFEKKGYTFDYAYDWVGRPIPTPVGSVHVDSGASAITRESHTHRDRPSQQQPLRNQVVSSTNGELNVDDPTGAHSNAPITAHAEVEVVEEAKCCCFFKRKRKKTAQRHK
row,ΔTm,SMILES
1,2.5 °C,Nc1ncnc2c1c(I)cn2[C@@H]1O[C@H](CO)[C@@H](O)[C@H]1O
2,0.9 °C,Nc1n[nH]c2nnc(-c3c(-c4ccccc4)nn4ccccc34)cc12
3,0.3 °C,O=C(O)Cc1ccc(O)c([N+](=O)[O-])c1
4,0.5 °C,O=c1sn(Cc2ccccc2)c(=S)n1Cc1ccccc1
5,-0.3 °C,O=Nc1c(-c2c(O)[nH]c3ccccc23)[nH]c2ccccc12
6,0.5 °C,CC(C)(C)c1nc2c3ccc(F)cc3c3c(=O)[nH]ccc3c2[nH]1
7,0.9 °C,O=C1C=C2C(=Nc3c2c2c(c4c3=NC3=C4CCC=C3)C=NC=2)CC1

# Target: Glycogen synthase kinase-3 beta (Homo sapiens, UniProt P49841)
# Sequence (P49841 whole entry, looked up): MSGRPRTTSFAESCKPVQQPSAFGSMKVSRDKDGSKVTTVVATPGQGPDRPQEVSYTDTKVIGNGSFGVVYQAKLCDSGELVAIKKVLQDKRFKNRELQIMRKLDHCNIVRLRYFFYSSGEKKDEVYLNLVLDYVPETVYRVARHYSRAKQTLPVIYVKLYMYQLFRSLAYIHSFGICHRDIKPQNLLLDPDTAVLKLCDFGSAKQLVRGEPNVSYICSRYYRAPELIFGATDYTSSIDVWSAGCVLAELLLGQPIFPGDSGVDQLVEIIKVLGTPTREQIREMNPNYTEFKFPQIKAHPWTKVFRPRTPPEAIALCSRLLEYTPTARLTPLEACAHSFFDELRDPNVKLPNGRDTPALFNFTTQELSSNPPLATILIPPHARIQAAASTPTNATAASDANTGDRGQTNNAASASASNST
row,ΔTm,SMILES
1,2 °C,Nc1ncnc2c1c(I)cn2[C@@H]1O[C@H](CO)[C@@H](O)[C@H]1O
2,5 °C,Nc1n[nH]c2nnc(-c3c(-c4ccccc4)nn4ccccc34)cc12
3,0.6 °C,O=C(O)Cc1ccc(O)c([N+](=O)[O-])c1
4,-1 °C,O=c1sn(Cc2ccccc2)c(=S)n1Cc1ccccc1
5,11.5 °C,O=Nc1c(-c2c(O)[nH]c3ccccc23)[nH]c2ccccc12
6,3 °C,CC(C)(C)c1nc2c3ccc(F)cc3c3c(=O)[nH]ccc3c2[nH]1
7,2.3 °C,O=C1C=C2C(=Nc3c2c2c(c4c3=NC3=C4CCC=C3)C=NC=2)CC1

# Target: Serine/threonine-protein kinase PAK 4 (Homo sapiens) (UniProt O96013)
# Sequence (O96013 whole entry, looked up): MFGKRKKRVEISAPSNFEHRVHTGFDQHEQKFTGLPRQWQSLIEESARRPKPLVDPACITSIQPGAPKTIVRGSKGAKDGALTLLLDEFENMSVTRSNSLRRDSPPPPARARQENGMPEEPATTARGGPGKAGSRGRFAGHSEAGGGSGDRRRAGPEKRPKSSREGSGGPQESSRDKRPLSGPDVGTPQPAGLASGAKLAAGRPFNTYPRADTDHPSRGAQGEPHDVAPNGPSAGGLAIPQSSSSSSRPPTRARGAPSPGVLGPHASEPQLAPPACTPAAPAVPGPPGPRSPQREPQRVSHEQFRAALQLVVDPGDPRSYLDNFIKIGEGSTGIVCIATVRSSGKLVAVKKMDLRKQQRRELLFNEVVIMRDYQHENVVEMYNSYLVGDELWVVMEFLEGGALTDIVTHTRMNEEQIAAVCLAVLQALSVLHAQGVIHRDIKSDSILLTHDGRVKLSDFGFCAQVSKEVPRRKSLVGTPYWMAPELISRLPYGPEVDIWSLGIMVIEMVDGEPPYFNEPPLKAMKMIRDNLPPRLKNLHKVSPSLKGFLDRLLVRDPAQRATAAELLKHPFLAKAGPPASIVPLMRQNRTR
row,ΔTm,SMILES
1,1.1 °C,Nc1ncnc2c1c(I)cn2[C@@H]1O[C@H](CO)[C@@H](O)[C@H]1O
2,-0.1 °C,Nc1n[nH]c2nnc(-c3c(-c4ccccc4)nn4ccccc34)cc12
3,1.2 °C,O=C(O)Cc1ccc(O)c([N+](=O)[O-])c1
4,1.2 °C,O=c1sn(Cc2ccccc2)c(=S)n1Cc1ccccc1
5,1.7 °C,O=Nc1c(-c2c(O)[nH]c3ccccc23)[nH]c2ccccc12
6,1.2 °C,CC(C)(C)c1nc2c3ccc(F)cc3c3c(=O)[nH]ccc3c2[nH]1
7,3.8 °C,O=C1C=C2C(=Nc3c2c2c(c4c3=NC3=C4CCC=C3)C=NC=2)CC1

# Target: Serine/threonine-protein kinase PAK 6 (Homo sapiens) (UniProt Q9NQU5)
# Sequence (Q9NQU5 whole entry, looked up): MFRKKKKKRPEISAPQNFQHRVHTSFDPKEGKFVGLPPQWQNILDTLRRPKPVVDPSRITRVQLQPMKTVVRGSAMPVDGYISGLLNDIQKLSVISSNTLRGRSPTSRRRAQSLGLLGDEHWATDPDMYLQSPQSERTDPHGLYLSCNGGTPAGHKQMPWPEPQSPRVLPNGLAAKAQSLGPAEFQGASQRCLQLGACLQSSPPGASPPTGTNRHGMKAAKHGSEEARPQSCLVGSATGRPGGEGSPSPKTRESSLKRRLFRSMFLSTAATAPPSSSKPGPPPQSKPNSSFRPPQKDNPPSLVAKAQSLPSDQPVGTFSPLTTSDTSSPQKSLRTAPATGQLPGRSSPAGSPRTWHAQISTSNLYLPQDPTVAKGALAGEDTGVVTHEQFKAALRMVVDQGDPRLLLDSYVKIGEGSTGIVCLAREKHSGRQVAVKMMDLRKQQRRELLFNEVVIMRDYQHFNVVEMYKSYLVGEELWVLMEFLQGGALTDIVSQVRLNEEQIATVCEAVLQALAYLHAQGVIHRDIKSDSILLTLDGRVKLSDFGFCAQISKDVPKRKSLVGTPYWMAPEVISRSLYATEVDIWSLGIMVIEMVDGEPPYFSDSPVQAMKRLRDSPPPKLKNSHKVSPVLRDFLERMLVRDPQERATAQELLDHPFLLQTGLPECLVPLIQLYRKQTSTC
row,ΔTm,SMILES
1,1.1 °C,Nc1ncnc2c1c(I)cn2[C@@H]1O[C@H](CO)[C@@H](O)[C@H]1O
2,0.1 °C,Nc1n[nH]c2nnc(-c3c(-c4ccccc4)nn4ccccc34)cc12
3,-0.9 °C,O=C(O)Cc1ccc(O)c([N+](=O)[O-])c1
4,0.1 °C,O=c1sn(Cc2ccccc2)c(=S)n1Cc1ccccc1
5,1.7 °C,O=Nc1c(-c2c(O)[nH]c3ccccc23)[nH]c2ccccc12
6,2.3 °C,CC(C)(C)c1nc2c3ccc(F)cc3c3c(=O)[nH]ccc3c2[nH]1
7,3.1 °C,O=C1C=C2C(=Nc3c2c2c(c4c3=NC3=C4CCC=C3)C=NC=2)CC1

# Target: T1, Serine/threonine-protein kinase PLK4 (Homo sapiens) (UniProt O00444)
# T1 sequence (whole entry): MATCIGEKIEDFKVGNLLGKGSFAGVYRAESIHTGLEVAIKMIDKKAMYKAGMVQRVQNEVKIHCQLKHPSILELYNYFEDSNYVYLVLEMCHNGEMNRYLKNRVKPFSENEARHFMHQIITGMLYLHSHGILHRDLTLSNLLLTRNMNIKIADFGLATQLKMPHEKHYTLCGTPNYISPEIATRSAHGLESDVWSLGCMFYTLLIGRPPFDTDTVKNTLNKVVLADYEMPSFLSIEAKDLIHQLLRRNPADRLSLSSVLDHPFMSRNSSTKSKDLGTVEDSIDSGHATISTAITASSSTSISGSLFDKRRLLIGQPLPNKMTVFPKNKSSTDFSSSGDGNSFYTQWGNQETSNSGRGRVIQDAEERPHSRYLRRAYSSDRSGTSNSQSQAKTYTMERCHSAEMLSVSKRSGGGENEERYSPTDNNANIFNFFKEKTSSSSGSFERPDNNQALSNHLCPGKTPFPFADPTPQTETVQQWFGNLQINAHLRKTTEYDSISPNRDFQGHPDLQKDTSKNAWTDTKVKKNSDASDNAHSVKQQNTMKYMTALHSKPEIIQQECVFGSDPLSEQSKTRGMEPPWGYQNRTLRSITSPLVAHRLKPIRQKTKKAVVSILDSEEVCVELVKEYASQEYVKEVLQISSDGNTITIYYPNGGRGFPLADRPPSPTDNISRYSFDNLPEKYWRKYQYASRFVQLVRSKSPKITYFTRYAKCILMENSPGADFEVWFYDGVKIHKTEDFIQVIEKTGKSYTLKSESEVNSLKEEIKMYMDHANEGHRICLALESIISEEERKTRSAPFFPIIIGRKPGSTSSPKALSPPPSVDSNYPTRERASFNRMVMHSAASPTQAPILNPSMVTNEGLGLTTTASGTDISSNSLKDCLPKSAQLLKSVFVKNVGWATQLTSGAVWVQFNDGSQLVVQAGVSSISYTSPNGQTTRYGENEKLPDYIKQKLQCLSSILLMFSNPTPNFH
row,ΔTm,SMILES
1,2.9 °C,Nc1ncnc2c1c(I)cn2[C@@H]1O[C@H](CO)[C@@H](O)[C@H]1O
2,-0.2 °C,Nc1n[nH]c2nnc(-c3c(-c4ccccc4)nn4ccccc34)cc12
3,0.8 °C,O=C(O)Cc1ccc(O)c([N+](=O)[O-])c1
4,-0.2 °C,O=c1sn(Cc2ccccc2)c(=S)n1Cc1ccccc1
5,8.9 °C,O=Nc1c(-c2c(O)[nH]c3ccccc23)[nH]c2ccccc12
6,11.8 °C,CC(C)(C)c1nc2c3ccc(F)cc3c3c(=O)[nH]ccc3c2[nH]1
7,2.3 °C,O=C1C=C2C(=Nc3c2c2c(c4c3=NC3=C4CCC=C3)C=NC=2)CC1

# Target: Serine/threonine-protein kinase 16 (Homo sapiens) (UniProt O75716)
# Sequence (O75716 whole entry): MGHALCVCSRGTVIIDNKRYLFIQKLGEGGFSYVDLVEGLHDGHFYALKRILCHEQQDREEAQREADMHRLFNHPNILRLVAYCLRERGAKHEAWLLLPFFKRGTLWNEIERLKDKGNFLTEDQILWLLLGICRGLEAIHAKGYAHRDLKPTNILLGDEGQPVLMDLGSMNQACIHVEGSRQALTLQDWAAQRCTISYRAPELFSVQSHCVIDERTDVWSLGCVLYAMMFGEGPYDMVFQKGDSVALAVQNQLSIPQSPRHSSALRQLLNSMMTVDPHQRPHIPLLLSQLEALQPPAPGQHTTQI
row,ΔTm,SMILES
1,3.9 °C,Nc1ncnc2c1c(I)cn2[C@@H]1O[C@H](CO)[C@@H](O)[C@H]1O
2,0 °C,Nc1n[nH]c2nnc(-c3c(-c4ccccc4)nn4ccccc34)cc12
3,0.4 °C,O=C(O)Cc1ccc(O)c([N+](=O)[O-])c1
4,-0.4 °C,O=c1sn(Cc2ccccc2)c(=S)n1Cc1ccccc1
5,5.1 °C,O=Nc1c(-c2c(O)[nH]c3ccccc23)[nH]c2ccccc12
6,3.5 °C,CC(C)(C)c1nc2c3ccc(F)cc3c3c(=O)[nH]ccc3c2[nH]1
7,11.5 °C,O=C1C=C2C(=Nc3c2c2c(c4c3=NC3=C4CCC=C3)C=NC=2)CC1

# Target: Serine/threonine-protein kinase 38 (Homo sapiens) (UniProt Q15208)
# Sequence (Q15208 2-465 limits assumed): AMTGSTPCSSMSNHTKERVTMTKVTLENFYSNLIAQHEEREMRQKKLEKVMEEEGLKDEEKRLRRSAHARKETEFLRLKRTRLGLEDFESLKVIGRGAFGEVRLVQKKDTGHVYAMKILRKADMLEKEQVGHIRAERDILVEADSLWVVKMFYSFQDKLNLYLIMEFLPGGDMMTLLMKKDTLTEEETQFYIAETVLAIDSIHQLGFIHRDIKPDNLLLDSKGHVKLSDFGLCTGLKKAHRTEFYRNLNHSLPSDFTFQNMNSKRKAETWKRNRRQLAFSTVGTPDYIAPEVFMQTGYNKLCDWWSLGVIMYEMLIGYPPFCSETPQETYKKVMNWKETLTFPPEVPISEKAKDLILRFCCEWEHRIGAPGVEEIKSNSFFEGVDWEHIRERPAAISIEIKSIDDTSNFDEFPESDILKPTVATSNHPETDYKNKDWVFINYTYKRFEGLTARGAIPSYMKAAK
row,ΔTm,SMILES
1,1.7 °C,Nc1ncnc2c1c(I)cn2[C@@H]1O[C@H](CO)[C@@H](O)[C@H]1O
2,1.9 °C,Nc1n[nH]c2nnc(-c3c(-c4ccccc4)nn4ccccc34)cc12
3,2 °C,O=C(O)Cc1ccc(O)c([N+](=O)[O-])c1
4,0.4 °C,O=c1sn(Cc2ccccc2)c(=S)n1Cc1ccccc1
5,2.7 °C,O=Nc1c(-c2c(O)[nH]c3ccccc23)[nH]c2ccccc12
6,3.7 °C,CC(C)(C)c1nc2c3ccc(F)cc3c3c(=O)[nH]ccc3c2[nH]1
7,3.6 °C,O=C1C=C2C(=Nc3c2c2c(c4c3=NC3=C4CCC=C3)C=NC=2)CC1

# Target: Serine/threonine-protein kinase VRK2 (Homo sapiens) (UniProt Q86Y07)
# Sequence (Q86Y07 whole entry): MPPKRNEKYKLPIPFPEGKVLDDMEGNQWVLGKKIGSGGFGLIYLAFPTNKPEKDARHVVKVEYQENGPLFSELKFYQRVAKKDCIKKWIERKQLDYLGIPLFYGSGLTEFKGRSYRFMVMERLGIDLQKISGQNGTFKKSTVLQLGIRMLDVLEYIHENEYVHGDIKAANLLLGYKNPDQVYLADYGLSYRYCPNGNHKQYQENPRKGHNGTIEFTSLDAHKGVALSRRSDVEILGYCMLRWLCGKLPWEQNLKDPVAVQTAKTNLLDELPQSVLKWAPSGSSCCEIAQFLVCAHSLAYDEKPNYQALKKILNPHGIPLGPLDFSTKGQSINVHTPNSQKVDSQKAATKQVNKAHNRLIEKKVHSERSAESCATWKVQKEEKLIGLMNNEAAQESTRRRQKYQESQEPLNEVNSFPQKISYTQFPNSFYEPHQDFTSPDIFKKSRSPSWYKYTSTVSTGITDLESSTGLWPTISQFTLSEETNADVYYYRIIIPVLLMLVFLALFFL
row,ΔTm,SMILES
1,0.1 °C,Nc1ncnc2c1c(I)cn2[C@@H]1O[C@H](CO)[C@@H](O)[C@H]1O
2,0.3 °C,O=C(O)Cc1ccc(O)c([N+](=O)[O-])c1
3,0.3 °C,O=c1sn(Cc2ccccc2)c(=S)n1Cc1ccccc1
4,3.1 °C,O=Nc1c(-c2c(O)[nH]c3ccccc23)[nH]c2ccccc12
5,1.8 °C,CC(C)(C)c1nc2c3ccc(F)cc3c3c(=O)[nH]ccc3c2[nH]1
6,4.7 °C,O=C1C=C2C(=Nc3c2c2c(c4c3=NC3=C4CCC=C3)C=NC=2)CC1
